Laboratory results from patent US20100047294A1, “SEMI-FINISHED PRODUCT IN THE MANUFACTURE OF A COMPOSITION FOR SKIN OR HAIR CARE” (OY GRANULA AB LTD, priority 2006, published 2010).
Where two headings read alike, the source gives them in different places.

Key:
[1] = Ability to capture free radicals (statements in words)
[2] = extracts from knot wood of the tree trunk; compared with Trolox; lower value = better capture; cited from earlier work

Row | Compound | Capture of peroxyl radicals in vitro [2] [g/mol] | also measured
1 | COc1cc(C[C@H]2COC(=O)C2C(=O)c2ccc(O)c(OC)c2)ccc1O (some centres unmarked) [7-oxomatairesinol] |  | ability to capture free radicals, in words [1]: even better than that of hydroxymatairesinol; ability to capture free radicals, in words ([1]; listed as Oxomatairesinol): comparable to that of hydroxymatairesinol or even better; ability to capture free radicals, in words ([1]; listed as oxomatairesinol): relatively good in capturing the free radicals
2 | COc1cc([C@H]2c3cc(O)c(OC)cc3C[C@@H](CO)[C@@H]2CO)ccc1O [cyclolariciresinol] | 118 | 
3 | COc1cc(C[C@H]2C(=O)OC[C@@H]2[C@H](O)c2ccc(O)c(OC)c2)ccc1O [hydroxymatairesinol] | 179 | ability to capture free radicals, in words [1]: relatively good in capturing the free radicals
4 | COc1cc(C[C@H]2CO[C@H](c3ccc(O)c(OC)c3)[C@H]2CO)ccc1O [lariciresinol] | 370 | 
5 | COc1cc(C[C@H]2COC(=O)[C@@H]2Cc2ccc(O)c(OC)c2)ccc1O [matairesinol] | 345 | 
6 | Oc1ccc([C@H]2Oc3c(ccc(O)c3O)[C@@H](O)[C@H]2O)cc1O [melacasidine] | 50 | 
7 | COc1cc(CC2COC(=O)C2(O)Cc2ccc(O)c(OC)c2)ccc1O (centres unmarked) [nortrachelogenin] | 169 | 
8 | COc1cc(C[C@@H](CO)[C@H](CO)Cc2ccc(O)c(OC)c2)ccc1O [secoisolariciresinol] |  | ability to capture free radicals, in words [1]: relatively good in capturing the free radicals
9 | Oc1ccc([C@H]2Oc3c(ccc(O)c3O)[C@@H](O)[C@H]2O)cc1 [teracasidine] | 128 | 
10 | Cc1c(C)c2c(c(C)c1O)CCC(C)(C(=O)O)O2 (centres unmarked) [trolox, reference compound] | 125 | 
11 | pinoresinol | 129 | 
